In this test the target is T1, HEK cells stably transfected with tetracycline inducible hNR1 and hNR2A (Homo sapiens, UniProt Q05586+Q12879).
T1 construct: expressed in transfected cells; host or cells: HEK cells, stably transfected, tetracycline/doxycycline inducible
T1 sequence (Q12879 23-1464, other chains not shown): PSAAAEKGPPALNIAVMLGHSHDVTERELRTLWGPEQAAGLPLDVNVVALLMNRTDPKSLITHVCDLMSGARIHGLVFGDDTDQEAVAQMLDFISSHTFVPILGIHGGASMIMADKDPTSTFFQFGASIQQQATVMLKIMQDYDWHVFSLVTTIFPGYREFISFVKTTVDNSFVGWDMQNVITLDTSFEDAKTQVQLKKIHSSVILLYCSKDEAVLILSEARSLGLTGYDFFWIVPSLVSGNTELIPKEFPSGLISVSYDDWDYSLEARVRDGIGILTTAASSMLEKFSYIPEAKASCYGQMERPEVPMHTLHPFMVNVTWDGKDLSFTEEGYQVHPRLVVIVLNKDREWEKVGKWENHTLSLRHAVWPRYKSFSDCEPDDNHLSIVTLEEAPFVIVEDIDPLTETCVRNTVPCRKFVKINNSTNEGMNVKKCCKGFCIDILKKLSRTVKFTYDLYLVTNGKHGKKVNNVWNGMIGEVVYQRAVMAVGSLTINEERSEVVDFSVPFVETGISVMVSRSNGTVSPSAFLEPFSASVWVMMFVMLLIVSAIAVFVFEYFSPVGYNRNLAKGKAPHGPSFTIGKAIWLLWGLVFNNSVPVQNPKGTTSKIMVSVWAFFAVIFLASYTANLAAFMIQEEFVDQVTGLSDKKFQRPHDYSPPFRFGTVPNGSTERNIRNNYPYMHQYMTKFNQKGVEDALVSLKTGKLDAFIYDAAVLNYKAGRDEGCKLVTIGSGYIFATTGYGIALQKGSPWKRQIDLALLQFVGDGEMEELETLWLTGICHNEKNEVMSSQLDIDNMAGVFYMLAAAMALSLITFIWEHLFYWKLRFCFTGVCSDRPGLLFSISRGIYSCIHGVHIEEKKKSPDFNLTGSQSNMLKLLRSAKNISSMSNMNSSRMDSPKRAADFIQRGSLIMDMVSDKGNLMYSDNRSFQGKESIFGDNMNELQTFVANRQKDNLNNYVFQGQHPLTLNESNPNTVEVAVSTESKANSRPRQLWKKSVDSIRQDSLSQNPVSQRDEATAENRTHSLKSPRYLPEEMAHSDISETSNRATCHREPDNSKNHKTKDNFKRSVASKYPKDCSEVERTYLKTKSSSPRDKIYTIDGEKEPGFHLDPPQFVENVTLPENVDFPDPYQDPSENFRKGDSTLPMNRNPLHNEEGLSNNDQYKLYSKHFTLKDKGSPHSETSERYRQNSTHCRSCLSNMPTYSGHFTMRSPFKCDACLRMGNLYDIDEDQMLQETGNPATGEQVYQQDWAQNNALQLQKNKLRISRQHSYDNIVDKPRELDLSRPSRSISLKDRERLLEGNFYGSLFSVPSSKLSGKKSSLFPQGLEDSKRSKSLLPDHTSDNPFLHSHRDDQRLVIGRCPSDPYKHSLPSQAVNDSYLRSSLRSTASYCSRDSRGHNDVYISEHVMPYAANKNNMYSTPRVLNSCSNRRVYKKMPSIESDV
Kind of test: Assay 1: Cell-Based Assay, cytosolic calcium response to positive allosteric modulators (with 30 μM glycine and 300 nM L-glutamate, EC30). The settings on record: Table 3; cytosolic calcium response, with 30 μM glycine and 300 nM L-glutamate (EC30); — = no plateau was reached. The procedure, abridged:
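Cells induced 24 h with 7.5 μg mL^−1 doxycycline plus 500 μM (+)-ketamine, loaded 60 min at 37 °C with calcium dye in Mg-free HBSS (1.8 mM Ca, probenecid, 10 μM (+)-ketamine, pH 7.15). Peak RFU over 5 min after compound addition, scaled to 100 μM L-glutamate (100%) and 0 μM (0%); four-parameter Hill fit for EC50, max % if no plateau.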
For `CCN(Cc1cc(=O)n2c(/C=C/C(N)=O)c(C)sc2n1)c1ccc(F)cc1` [compound 261, (E)-3-[7-[(N-ethyl-4-fluoro-anilino)methyl]-2-methyl-5-oxo-thiazolo[3,2-a]pyrimidin-3-yl]prop-2-enamide], the EC50 was found to be 1.54 µM.

With `Cc1sc2nc(Cn3nc(C(F)(F)F)cc3Cl)cc(=O)n2c1/C=C/C#N` [compound 262, (E)-3-[7-[[5-chloro-3-(trifluoromethyl)pyrazol-1-yl]methyl]-2-methyl-5-oxo-thiazolo[3,2-a]pyrimidin-3-yl]prop-2-enenitrile], the EC50 came to 1.11 µM.

Consider `Cc1sc2nc(Cn3nc(C(F)(F)F)cc3Cl)cc(=O)n2c1/C=C\C#N` [compound 263, (Z)-3-[7-[[5-chloro-3-(trifluoromethyl)pyrazol-1-yl]methyl]-2-methyl-5-oxo-thiazolo[3,2-a]pyrimidin-3-yl]prop-2-enenitrile], for which the EC50 stood at 0.501 µM.

Regarding `Cc1sc2nc(Cn3nc(C(F)(F)F)cc3Cl)cc(=O)n2c1/C=C/C(N)=O` [compound 264, (E)-3-[7-[[5-chloro-3-(trifluoromethyl)pyrazol-1-yl]methyl]-2-methyl-5-oxo-thiazolo[3,2-a]pyrimidin-3-yl]prop-2-enamide], the EC50 came to 5.09 µM.

Turning to `CCNC(=O)c1c(C)sc2nc(Cn3nc(C(F)(F)F)cc3CC(C)C)cc(=O)n12` [compound 265, N-ethyl-7-[[5-isobutyl-3-(trifluoromethyl)pyrazol-1-yl]methyl]-2-methyl-5-oxo-thiazolo[3,2-a]pyrimidine-3-carboxamide], the EC50 was 4.84 µM.

Take `N#CC1CC1c1c(Cl)sc2nc(Cn3nc(C(F)(F)F)cc3Cl)cc(=O)n12` (stereo not shown) [compound 267]: the EC50 came to 0.157 µM.

In the case of `N#CC1CC1c1c(Cl)sc2nc(Cn3nc(Cl)cc3C(F)(F)F)cc(=O)n12` (stereo not shown) [compound 268, 2-[2-chloro-7-[[3-chloro-5-(trifluoromethyl)pyrazol-1-yl]methyl]-5-oxo-thiazolo[3,2-a]pyrimidin-3-yl]cyclopropanecarbonitrile], the EC50 came to 0.182 µM.

In the case of `Cc1sc2nc(Cc3nn(C)cc3Cl)cc(=O)n2c1C1CC1C#N` (stereo not shown) [compound 271, 2-[7-[(4-chloro-1-methyl-pyrazol-3-yl)methyl]-2-methyl-5-oxo-thiazolo[3,2-a]pyrimidin-3-yl]cyclopropanecarbonitrile], the EC50 amounted to 3.57 µM.

On to `Cc1sc2nc(Cc3nc(C(F)(F)F)cn3C)cc(=O)n2c1C1CC1C#N` (stereo not shown) [compound 278, 2-[2-methyl-7-[[1-methyl-4-(trifluoromethyl)imidazol-2-yl]methyl]-5-oxo-thiazolo[3,2-a]pyrimidin-3-yl]cyclopropanecarbonitrile], for which the EC50 was found to be 10.6 µM.

As for `CCN(Cc1cc(=O)n2c(/C=C/C#N)c(C)sc2n1)c1ccc(F)cc1` [compound 279, (E)-3-[7-[(N-ethyl-4-fluoro-anilino)methyl]-2-methyl-5-oxo-thiazolo[3,2-a]pyrimidin-3-yl]prop-2-enenitrile], the EC50 is 1.82 µM.

(Values after patent US9988400B2 (Genentech, Inc., priority 2013, dated 2018).)
